We go through six compounds from ChEMBL document CHEMBL3797052 (Eur J Med Chem, 2016).

Holding throughout (assay type): functional
Test [1] can be described thus: Antiproliferative activity against human PC3 cells assessed as cell growth at 10^-5 M after 48 hrs by sulforhodamine B assay. The note with it: PC-3, 48 h, read-out: Activity. (In general: The SRB assay estimates cell density from bound dye.)
The test system of a further test is U-251. Kind of test: Antiproliferative activity against human U251 cells assessed as cell growth at 10^-5 M after 48 hrs by sulforhodamine B assay. Conditions: U-251, 48 h, read-out: Activity.
Another test concerns K562. Description: Antiproliferative activity against human K562 cells assessed as cell growth at 10^-5 M after 48 hrs by sulforhodamine B assay. The note with it: K562, 48 h, read-out: Activity.
A short description of test [2]: Antiproliferative activity against human COLO205 cells assessed as cell growth at 10^-5 M after 48 hrs by sulforhodamine B assay. Conditions: COLO 205, 48 h, read-out: Activity.
A short description of test [3]: Antiproliferative activity against human OVCAR3 cells assessed as cell growth at 10^-5 M after 48 hrs by sulforhodamine B assay. Conditions: OVCAR-3, 48 h, read-out: Activity.
Test [4] can be described thus: Antiproliferative activity against human TK10 cells assessed as cell growth at 10^-5 M after 48 hrs by sulforhodamine B assay. Conditions: TK-10, 48 h, read-out: Activity.
The subject of another test is T47D. Description: Antiproliferative activity against human T47D cells assessed as cell growth at 10^-5 M after 48 hrs by sulforhodamine B assay. Conditions: read-out: Activity.
The next test relates to MDA-MB-435. Description: Antiproliferative activity against human MDA-MB-435 cells assessed as cell growth at 10^-5 M after 48 hrs by sulforhodamine B assay. The note with it: MDA-MB-435, 48 h, read-out: Activity.
Test [5] in a line: Antiproliferative activity against human RPMI8226 cells assessed as cell growth at 10^-5 M after 48 hrs by sulforhodamine B assay. Conditions: RPMI-8226, 48 h, read-out: Activity.
Test [6] is described as follows: Antiproliferative activity against human UO31 cells assessed as cell growth at 10^-5 M after 48 hrs by sulforhodamine B assay. Conditions: UO-31, 48 h, read-out: Activity.
Test [7] in a line: Antiproliferative activity against human HCC2998 cells assessed as cell growth at 10^-5 M after 48 hrs by sulforhodamine B assay. The note with it: HCC 2998, 48 h, read-out: Activity.
Test [8] is described as follows: Antiproliferative activity against human NCI-ADR-RES cells assessed as cell growth at 10^-5 M after 48 hrs by sulforhodamine B assay. The note with it: read-out: Activity.
A short description of test [9]: Antiproliferative activity against human UACC62 cells assessed as cell growth at 10^-5 M after 48 hrs by sulforhodamine B assay. Conditions: UACC-62, 48 h, read-out: Activity.
A short description of test [10]: Antiproliferative activity against human OVCAR4 cells assessed as cell growth at 10^-5 M after 48 hrs by sulforhodamine B assay. Conditions: OVCAR-4, 48 h, read-out: Activity.
In the next test the test system is A549. Description: Antiproliferative activity against human A549/ATCC cells assessed as cell growth at 10^-5 M after 48 hrs by sulforhodamine B assay. The note with it: A549, 48 h, read-out: Activity.
Test [11] is described as follows: Antiproliferative activity against human OVCAR8 cells assessed as cell growth at 10^-5 M after 48 hrs by sulforhodamine B assay. Conditions: OVCAR-8, 48 h, read-out: Activity.
The subject of another test is CCRF-CEM. Description: Antiproliferative activity against human CCRF-CEM cells assessed as cell growth at 10^-5 M after 48 hrs by sulforhodamine B assay. The note with it: read-out: Activity.
The next test relates to SK-MEL-2. Kind of test: Antiproliferative activity against human SK-MEL-2 cells assessed as cell growth at 10^-5 M after 48 hrs by sulforhodamine B assay. The note with it: SK-MEL-2, 48 h, read-out: Activity.
For the next test, the system named is NCI-H522. Kind of test: Antiproliferative activity against human NCI-H522 cells assessed as cell growth at 10^-5 M after 48 hrs by sulforhodamine B assay. The note with it: NCI-H522, 48 h, read-out: Activity.
Test [12] is described as follows: Antiproliferative activity against human SKOV3 cells assessed as cell growth at 10^-5 M after 48 hrs by sulforhodamine B assay. The note with it: SK-OV-3, 48 h, read-out: Activity.
A short description of test [13]: Antiproliferative activity against human HOP62 cells assessed as cell growth at 10^-5 M after 48 hrs by sulforhodamine B assay. The note with it: HOP-62, 48 h, read-out: Activity.
The subject of another test is HT-29. Kind of test: Antiproliferative activity against human HT-29 cells assessed as cell growth at 10^-5 M after 48 hrs by sulforhodamine B assay. Conditions: HT-29, 48 h, read-out: Activity.
A short description of test [14]: Antiproliferative activity against human HL-60(TB) cells assessed as cell growth at 10^-5 M after 48 hrs by sulforhodamine B assay. Conditions: HL-60, 48 h, read-out: Activity.
A further test relates to MDA-MB-231. Description: Antiproliferative activity against human MDA-MB-231 cells assessed as cell growth at 10^-5 M after 48 hrs by sulforhodamine B assay. The note with it: MDA-MB-231, 48 h, read-out: Activity.
The test system of the next test is NCI-H460. Description: Antiproliferative activity against human NCI-H460 cells assessed as cell growth at 10^-5 M after 48 hrs by sulforhodamine B assay. Conditions: NCI-H460, 48 h, read-out: Activity.
Test [15] in a line: Antiproliferative activity against human LOXIMVI cells assessed as cell growth at 10^-5 M after 48 hrs by sulforhodamine B assay. Conditions: LOX IMVI, read-out: Activity.
Test [16] is described as follows: Antiproliferative activity against human UACC62 cells assessed as growth inhibition after 48 hrs by sulforhodamine B assay. The note with it: UACC-62, 48 h.
Test [17] is described as follows: Antiproliferative activity against human SF295 cells assessed as growth inhibition after 48 hrs by sulforhodamine B assay. Conditions: SF-295, 48 h.
[18] abbreviates: read-out: LC50 (the source's name).

Regarding `CNC(=O)c1cc(Oc2ccc3nc(NC(=O)c4ccc5c(c4)OCCO5)sc3c2)ccn1`, the growth at 10 µM in test [1] was determined as 95.8%; in the test on U-251 it was 45.5%; with K562, 91.2%; in [2], 103%; in test [3] it was 101%; in test [4] it was 105%. Besides, the growth at 10 µM in the test with T47D came out at 92.1%; in the test with MDA-MB-435 it was 98.5%; in [5], 97.7%; in [6] it was 94.7%; in test [7], 103%; in [8] it was 95.8%. The growth at 10 µM in test [9] is 102%; in [10], 97.5%; in the test on A549, 98.8%; in test [11], 100%; in the test on CCRF-CEM it was 98.4%; with SK-MEL-2 it was 113%. Also, the growth at 10 µM was determined as 99.6% with NCI-H522; 101% in [12]; 104% in test [13]; 71.3% in the test on HT-29; 93.7% in test [14]; 101% in the test on MDA-MB-231. For the same compound, the values for the growth at 10 µM (in the test with NCI-H460; in test [15]) were 104% and 97.8%, respectively.
On to `CNC(=O)c1cc(Oc2ccc3nc(NC(=O)c4cccc(F)n4)sc3c2)ccn1`, for which the growth at 10 µM in test [1] worked out at 73%; in the test with U-251, 79.9%; with K562, 77.5%; in test [2], 105%; in test [3] it was 95.5%; in [4] it was 133%. Further, the growth at 10 µM was 84.8% with T47D; 100% with MDA-MB-435; 70.4% in test [5]; 67.1% in test [6]; 114% in test [7]; 88.8% in [8]. The growth at 10 µM in test [9] was found to be 78%; in test [10], 76%; in the test with A549 it was 75.2%; in test [11], 85%; in the test with CCRF-CEM, 64.7%; in the test on SK-MEL-2, 110%. The growth at 10 µM in the test on NCI-H522 was found to be 69.8%; in test [12], 116%; in [13], 90%; in the test on HT-29 it was 96%; in [14], 78.2%; in the test with MDA-MB-231 it was 86%. For the same compound, the growth at 10 µM came to 89.5% in the test with NCI-H460 and 84.8% in test [15].
For the compound `CNC(=O)c1cc(Oc2ccc(NC(=O)Nc3ccc(Cl)c(C(F)(F)F)c3)cc2)ccn1` [SORAFENIB], the TGI in test [16] and in [17] was 5.01 µM throughout. In addition, the CC50 in test [16] (setting [18]) turned out to be 20 µM; in [17] (setting [18]) it was 31.6 µM.
On to `CNC(=O)c1cc(Oc2ccc3nc(NC(=O)c4ccc5ncccc5c4)sc3c2)ccn1`, for which the growth at 10 µM in [1] turned out to be 93.2%; with U-251, 93.6%; in the test on K562 it was 93.7%; in test [2], 95.8%; in test [3], 98.9%; in test [4], 90.5%. For the same compound, the growth at 10 µM was found to be 51.3% in the test on T47D; 91.6% in the test on MDA-MB-435; 71.9% in test [5]; 77% in [6]; 106% in test [7]; 88.8% in test [8]. Moreover, the growth at 10 µM in [9] came out at 94.9%; in test [10] it was 87.4%; with A549, 76.5%; in test [11], 100%; in the test with CCRF-CEM, 91%; in the test on SK-MEL-2, 86.2%. Moreover, the growth at 10 µM in the test with NCI-H522 amounted to 54.3%; in test [13], 112%; with HT-29 it was 69.9%; in test [14] it was 87.5%; with MDA-MB-231 it was 98.6%; in the test on NCI-H460 it was 98.6%. In addition, the growth at 10 µM in test [15] worked out at 99.6%.
As to `CNC(=O)c1cc(Oc2ccc3nc(NC(=O)Nc4ccc(Cl)cc4)sc3c2)ccn1`, the growth at 10 µM amounted to 66% in test [1]; 37.3% in the test with U-251; 65.6% in the test with K562; 79.4% in [2]; 48.8% in test [3]; 62.3% in test [4]. The growth at 10 µM came to 44% in the test on T47D; 64.1% in the test on MDA-MB-435; 81.7% in test [5]; 62.5% in [6]; 86.5% in test [7]; 83.6% in test [8]. Moreover, the growth at 10 µM in test [10] amounted to 13%; in the test with A549, 44.1%; in test [11], 57.2%; in the test with CCRF-CEM, 83.2%; in the test with SK-MEL-2, 81.1%; in the test on NCI-H522, 78%. Further, the growth at 10 µM in [12] amounted to 82%; in [13], 6.54%; with HT-29 it was 68.8%; in test [14], 98.9%; with MDA-MB-231 it was 34.4%; in the test on NCI-H460, 64.3%. Also, in test [15], the growth at 10 µM was determined as 51.6%.
For the compound `CNC(=O)c1cc(Oc2ccc3nc(NC(=O)Nc4ccc(F)cc4F)sc3c2)ccn1`, the growth at 10 µM in test [1] was found to be 65.9%; in the test on U-251, 37%; in the test with K562 it was 71.5%; in test [2] it was 87.1%; in test [3] it was 74.7%; in test [4], 93.5%. Moreover, the growth at 10 µM in the test with T47D worked out at 56.5%; with MDA-MB-435, 62.5%; in test [5] it was 72.9%; in test [6], 91.4%; in [7], 88.1%; in test [8], 45.5%. The growth at 10 µM in test [9] amounted to 65.1%; in [10], 34.2%; in the test with A549 it was 44.8%; in test [11], 45.1%; with CCRF-CEM, 89.7%; in the test on SK-MEL-2 it was 74.7%. For the same compound, the growth at 10 µM in the test with NCI-H522 turned out to be 68.7%; in test [12] it was 76.3%; in test [13], 60.7%; in the test on HT-29, 58.8%; in test [14] it was 98.3%; in the test with MDA-MB-231, 47.6%. Besides, the growth at 10 µM in the test with NCI-H460 was determined as 63%; in test [15], 52.1%.

The TGI is the concentration at which net growth stops.
